Experimental data reported in patent US20080171659A1, “Insecticidally Coated Fertilizer Solids” (priority 2007, published 2008).

Type: physicochemical
Description: U.S. Pat. No. 5,783,203 mentions acetone as a solvent for imidacloprid. […] Using a 6 wt % imidacloprid in acetone would mean applying 1.67 wt % of the solution on the fertilizer based on the combined weight of the fertilizer and the solution to achieve a product with 0.10 wt % imidacloprid. This would be very difficult to achieve a dry product. Fertilizer products with 0.2 wt % and 0.5 wt % imidacloprid would require 3.33 wt % and 8.33 wt % respectively of the imidacloprid solution absorbed onto the fertilizer; concentrations which are not likely feasible in acetone. In addition, acetone is volatile and highly flammable which would make processing very difficult and expensive.

O=[N+]([O-])NC1=NCCN1Cc1ccc(Cl)nc1 [imidacloprid]
solubility: less than 7 wt %
